Reference: patent US5593970A, “Heterocyclic anthracycline analogs” (priority 1994, dated 1997)

Key:
Assay in all cases: Soft agar colony formation disk diffusion assay
LS180 = assay type: cell-based, human
Description: (§1) A more elaborate version of this fundamental assay, the soft agar colony formation disk diffusion assay was used. This assay defines the relative activity of one particular drug versus a tumoral cell line type. The effect of the test drug against tumoral cells could be measured by its inhibitory capacity against colony formation after the delivery of the compound, in different concentrations on an filter disk(4). A modified technique of this assay was used in order to investigate the antiproliferative activity of candidate compounds. Tumoral cells from solid tumors and ascitic lines were plated separately in a two layer agar matrix. Cell lines to be tested were suspended in an upper layer of 0.4% Noble agar (Difco#00142-01) in RPMI-1066 (Gibco#3201875) at a yield varying between 10^4 to 2×10^5 cells per 60 mm Petri dish. Plating efficiency was determined for each line in order to achieve an optimal number of colonies per dish. Plates were examined before drug administration to confirm a uniform dispersion of single cells. The bottom layer consisted of 0.8% Noble agar, 0.8% Tryptic Soy Broth (difco#0037001)in CMRL-1066/Fischer's. The bottom layers were used within 2 and 9 days of preparation. Plated dishes (bottom layer of agar, upper layer of cells and administered drug were incubated in humidified atmosphere at 37° C., 5% CO2 for 10-20 days depending upon the time necessary to observe adequate colonies (defined as a cell aggregate of more than 50 cells) both control and drug inhibited. Drugs were administered on a paper filter disk (Whatman No. 1) of 6.5 mm diameter placed on the upper layer at 1/3 distance from the edge of the dish. The anti-clonogenic activity of the compounds was measured as the zone of inhibition from the disk edge to the most proximal colonies. This zone of inhibition was checked on an inverted microscope (40×) and was measured with a micrometer mounted in the eyepiece. The ocular micrometer was calibrated with a stage micrometer set for a particular combination of ocular and objective lenses. […] We made a modification of the initial technique by not plating a solid tumor and a leukemia simultaneously in the same Petri dish. Anti-clonogenic tests performed on leukemia cell line have helped in the discovery of the majority of current clinically used cytostatic drugs. Our tests on solid tumor lines (animal or human) may help define active compounds with solid tumor specificity. […] HUMAN TUMORS. […] LS180 (13) and BE1(14) were obtained from the Oncology Dept. of the Montreal General Hospital. […] Cell lines were routinely passaged twice a week by trypsinization and maintained in 25, or 75-sq. cm Falcon Plastic flasks at 37° C., 5% CO2 in humidified atmosphere. Both compounds were dissolved in DMSO (1 mg/100 ul) and brought to final volume (250 ul) with Millipore deionized sterile water. Further dilutions were made with […] volume of 25 ul of freshly prepared solution was placed on the filter disk and allowed to dry.

MCF7/ADR = assay type: cell-based, human
Description: as §1

MCF7 = assay type: cell-based, human
Description: as §1

HT29 = assay type: cell-based, human
Description: as §1, with “This assay defines the relative activity of one particular drug versus a tumoral cell line type.” left out, “Plates were examined before drug administration to confirm a uniform dispersion of single cells.” left out, “dish.” for “dish. Anti-clonogenic tests performed on leukemia cell line have helped in the discovery of the majority of current clinically used cytostatic drugs. Our tests on solid tumor lines (animal or human) may help define active compounds with solid tumor specificity.”

MATB.WT = assay type: cell-based, rat
Description: (§2) A more elaborate version of this fundamental assay, the soft agar colony formation disk diffusion assay was used. This assay defines the relative activity of one particular drug versus a tumoral cell line type. The effect of the test drug against tumoral cells could be measured by its inhibitory capacity against colony formation after the delivery of the compound, in different concentrations on an filter disk(4). A modified technique of this assay was used in order to investigate the antiproliferative activity of candidate compounds. Tumoral cells from solid tumors and ascitic lines were plated separately in a two layer agar matrix. Cell lines to be tested were suspended in an upper layer of 0.4% Noble agar (Difco#00142-01) in RPMI-1066 (Gibco#3201875) at a yield varying between 10^4 to 2×10^5 cells per 60 mm Petri dish. Plating efficiency was determined for each line in order to achieve an optimal number of colonies per dish. Plates were examined before drug administration to confirm a uniform dispersion of single cells. The bottom layer consisted of 0.8% Noble agar, 0.8% Tryptic Soy Broth (difco#0037001)in CMRL-1066/Fischer's. The bottom layers were used within 2 and 9 days of preparation. Plated dishes (bottom layer of agar, upper layer of cells and administered drug were incubated in humidified atmosphere at 37° C., 5% CO2 for 10-20 days depending upon the time necessary to observe adequate colonies (defined as a cell aggregate of more than 50 cells) both control and drug inhibited. Drugs were administered on a paper filter disk (Whatman No. 1) of 6.5 mm diameter placed on the upper layer at 1/3 distance from the edge of the dish. The anti-clonogenic activity of the compounds was measured as the zone of inhibition from the disk edge to the most proximal colonies. This zone of inhibition was checked on an inverted microscope (40×) and was measured with a micrometer mounted in the eyepiece. The ocular micrometer was calibrated with a stage micrometer set for a particular combination of ocular and objective lenses. […] We made a modification of the initial technique by not plating a solid tumor and a leukemia simultaneously in the same Petri dish. Anti-clonogenic tests performed on leukemia cell line have helped in the discovery of the majority of current clinically used cytostatic drugs. Our tests on solid tumor lines (animal or human) may help define active compounds with solid tumor specificity. […] Murine tumors were maintained IN VIVO in order to diminish the selection of subpopulations of cells normally present in the heterogenous IN VIVO tumor. The actual drug sensitivity assay was done IN VITRO. For these experiments cells from freshly excised tumors or from ascitic fluids were maintained in RPMI-1066. Both compounds were dissolved in DMSO (1 mg/100 ul) and brought to final volume (250 ul) with Millipore deionized sterile water. Further dilutions were made with […] volume of 25 ul of freshly prepared solution was placed on the filter disk and allowed to dry.

MATB/ADR = assay type: cell-based, rat
Description: as §2

B16 = assay type: cell-based, murine
Description: as §2

M5076 = assay type: cell-based, murine
Description: as §2

P388/ADR = assay type: cell-based, murine
Description: as §2

P388 = assay type: cell-based, murine
Description: as §2

Row | Compound | zone of inhibition (LS180; 10 μg/DISK) | zone of inhibition (LS180; 100 μg/DISK) | zone of inhibition (MCF7/ADR; 10 μg/DISK) | zone of inhibition (MCF7/ADR; 100 μg/DISK) | zone of inhibition (MCF7; 10 μg/DISK) | zone of inhibition (MCF7; 100 μg/DISK) | zone of inhibition (HT29; 10 μg/DISK) | zone of inhibition (HT29; 100 μg/DISK) | zone of inhibition (MATB.WT; 10 μg/DISK) | zone of inhibition (MATB.WT; 100 μg/DISK) | zone of inhibition (MATB/ADR; 10 μg/DISK) | zone of inhibition (MATB/ADR; 100 μg/DISK) | zone of inhibition (B16; 10 μg/DISK) | zone of inhibition (B16; 100 μg/DISK) | zone of inhibition (M5076; 10 μg/DISK) | zone of inhibition (M5076; 100 μg/DISK) | zone of inhibition (P388/ADR; 10 μg/DISK) | zone of inhibition (P388/ADR; 100 μg/DISK) | zone of inhibition (P388; 10 μg/DISK) | zone of inhibition (P388; 100 μg/DISK)
1 | COCOCC(=O)C1CC2=C(CO1)C(=O)c1c(cc3ccccc3c1O)C2=O (stereo not shown) [BCH-714, 3-(2-methoxymethoxy)aceto-11-hydroxy-1,2,3,4-tetrahydro-(2-oxygen)-napthacene-5,12-dione] | 9.0 ± 4.2 Zone Units | 42.0 ± 26.0 Zone Units | 0 Zone Units | 0 Zone Units | 0 Zone Units | 0 Zone Units | 0 Zone Units | 0 Zone Units | 0 Zone Units | 0 Zone Units | 0 Zone Units | 0 Zone Units | 0 Zone Units | 0 Zone Units | 15.5 ± 5.0 Zone Units | 55.0 ± 8.4 Zone Units | 0 Zone Units | 0 Zone Units | 0 Zone Units | 27.0 ± 4.2 Zone Units
2 | CCOC(=O)C1Cc2c(O)c3c(c(O)c2CS1)C(=O)c1ccccc1C3=O (stereo not shown) [BCH-713, 3-carbethoxy-5,12-dihydroxy-1,2,3,4-tetrahydro-(2-sulfur)naphthacene-6,11-dione] | 0 Zone Units | 45.7 ± 21.5 Zone Units | 24.0 ± 8.6 Zone Units | 94.5 ± 64.7 Zone Units | 0 Zone Units | 0 Zone Units | 0 Zone Units | 0 Zone Units | 0 Zone Units | 27.4 ± 4.3 Zone Units | 0 Zone Units | 0 Zone Units | 0 Zone Units | 24.4 ± 8.6 Zone Units | 0 Zone Units | 42.7 ± 8.6 Zone Units | 0 Zone Units | 61.0 ± 0.0 Zone Units | 0 Zone Units | 45.7 ± 21.5 Zone Units
